Patent US12440544B2, “Cross-reactive epitope for multiple sclerosis” (The Board of Trustees of the Leland Stanford Junior …, priority 2019, dated 2025)

Tests used:
Type in all cases: cell-based, human
MS-1 TCR cell line = assay: T cell stimulation assay (CD69), MS1-TCR cell line co-cultured with peptide-loaded T2-DR15 antigen presenting cells; settings: for self-peptide identified for TCR2/MS-1 TCR: predicted with positional mutation/refined substitution matrix data, used for MS-1 TCR stimulation
From the text: We generated MS1-TCR cell line, co-cultured with T2-DR15 antigen presenting cell line loaded with yeast library generated peptides and were examined for activation. CD69 was used as a marker for T cell activation. […] We used yeast library enrichment data to predict actual peptides/antigens (self or non-self) for MS-1 CD4 TCRs.
TCRα, β constructs were cloned into a lentiviral construct. For TCR expression, alpha and beta TCR lentiviral constructs were transfected into 293× cells separately. The virus was harvested after 72 hr of transfection and transduced into Jurkat αβ^−/− or SKW αβ^−/− cells. SKW or Jurkat cells were enriched for highest expression of TCRαβ by using a Miltenyi anti-APC selection (Miltenyi 130-090-855).
T cell stimulation assays were performed as previously described. All the T cell peptide stimulation experiments were done in 96 well round bottom plates with a 200 μl total volume. T2, K562 cells or BMDCs were pulsed with 10-100 ug of the peptides for 45 minutes, washed once and plated (10,000 cells/well). Cell lines expressing TCRs (100, 000 cells/well) were co-cultured with APCs for 18 hr. At the end of stimulation, cells were harvested, washed, and stained with TCRβ, human CD3, and CD69 and analyzed on LSR II (Becton Dickinson) for activation.

Adeno-TCR1 = assay: T cell stimulation of adeno-tetramer sorted CD4 TCR cell line, cross reactivity with MBP 85-99 peptide; settings: adeno specific TCR cell line stimulated with Adeno peptide and MBP
From the text: (§1) To detect/determine adeno specific T cells directly from MS patients (n=9) and healthy (n=9), we generated pMHC tetramers, enriched, and enumerated CD4's that are specific to the adeno peptide. We were able to detect adeno specific CD4 T cells, which were higher in number among MS patients compared to HC. We also single cell sorted these adeno specific CD4 T cells, sequenced their TCRs, and generated TCR cell lines (adeno specific TCRs).
(§2) TCR cell lines from adeno-tetramer sorted CD4 TCRs were tested for cross reactivity with MBP 85-99 peptide. We also tested MS-1 TCR for cross reactivity with MBP. Adeno specific TCRs were stimulated with Adeno peptide and MBP. TCR2/ms-1 TCR and some of the adeno-TCRs (Adeno-TCR1 and 9) cross react with MBP peptide. Serum from MS (n=28) and HC (n=10) was tested for adeno virus titers in the serum. A subset of MS sera had higher adeno virus compared to HC sera. CD3+ T cells from 8 MS and 5 HCs were sorted, and TCR and RNA-seq performed using 10× platform. Additionally, for 4 out of 8 MS patients, T cells from cerebrospinal fluid were sequenced. […]
(§3) T cell stimulation assays were performed as previously described. […] At the end of stimulation, cells were harvested, washed, and stained with TCRβ, human CD3, and CD69 and analyzed on LSR II (Becton Dickinson) for activation.

Adeno-TCR9 = assay: as above; settings: adeno specific TCR cell line stimulated with Adeno peptide and MBP
From the text: as §1, §2, §3

ANYGKARSWYLK [SEQ ID NO:2]
self-peptide identified for TCR2/MS-1 TCR (MS-1 TCR cell line): identified for TCR2/MS-1 TCR

ATFTSYRSWYLA [Adeno]
stimulation of MS-1 TCR cell line (CD69 as marker for T cell activation) (MS-1 TCR cell line; co-cultured with T2-DR15 antigen presenting cell line loaded with peptide): stimulated MS-1 TCR cell line

DKGQQYRNWFLK [SEQ ID NO:4]
self-peptide identified for TCR2/MS-1 TCR (MS-1 TCR cell line): identified for TCR2/MS-1 TCR

ENPVVHFFKNIVTPR [MBP peptide]
cross reactivity of TCR2/MS-1 TCR with MBP peptide (MS-1 TCR cell line; TCR cell line stimulated with Adeno peptide and MBP): cross react | cross reactivity of Adeno-TCR1 with MBP peptide (Adeno-TCR1): cross react | cross reactivity of Adeno-TCR9 with MBP peptide (Adeno-TCR9): cross react

IDRHMYHSYLK [SEQ ID NO:3]
self-peptide identified for TCR2/MS-1 TCR (MS-1 TCR cell line): identified for TCR2/MS-1 TCR
